Assay results reported in publication PMC4169579, “Proteolytic Activity of Prostate-Specific Antigen (PSA) towards Protein Substrates and Effect of Peptides Stimulating PSA Activity” (PLoS ONE, 2014).
Positions of bridges follow the written chain, without caps; N, C: chain ends. Residues, ends and D or L forms follow the SMILES beside them. No end group written: not given here.

What was measured:
PSA [1] = biological target: T1, PSA (Homo sapiens, UniProt P07288); test: Stimulation of PSA activity by peptides, chromogenic substrate; type: biochemical; conditions: for Emax / EC50: 350 nM PSA preincubated with 0.35–350 µM peptide 30 min room temperature, 0.2 mM chromogenic substrate S-2586, mean ± SD, n = 2; for Emax: read-out: Stimulation (maximal stimulation capacity as compared to PSA alone, Vmax (peptide+PSA)/V(PSA)); for EC50: read-out: [peptide]½Vmax (peptide concentration with half-maximal stimulation)
T1 construct: from tissue; host or cells: pooled human seminal fluid
Description: (§1) The major form of active PSA (isoform PSA-B) was purified from pooled human seminal fluid by immunoaffinity chromatography followed by anion exchange chromatography. Semenogelins I and II were isolated from human seminal fluid as previously described, but instead of alkylating the proteins, the reducing agent 30 mM dithiothreitol (Sigma-Aldrich, St. Louis, MO) was included in all buffers during purification. Semenogelins were stored in the purification buffer containing 2 M urea and 5 mM EDTA at −70°C. Prior to cleavage by PSA, the buffer was exchanged to 50 mM Tris, pH 7.7, containing 0.15 M NaCl (TBS), with Amicon Ultra centrifugal filter units (MW cut-off 30 kDa) (Millipore, Cork, Ireland) at 4°C, and protein concentration was determined by measuring absorbance at 280 nm.
(§2) Peptides that bind to PSA and stimulate its activity have previously been identified by phage display. […] The purity of the peptides as determined by HPLC was over 95% in all batches. We have not observed any significant variation in the capacity of the peptides to stimulate the PSA activity between different peptide batches and suppliers.
(§3) The proteolytic activity of PSA towards small peptide substrates was compared with two different substrates. Both assays were performed in 96-well microplates (PerkinElmer, Turku, Finland) with duplicates in two separate experiments (n = 2) in TBS buffer containing 1 g/l bovine serum albumin (0.1% BSA-TBS). The chromogenic chymotrypsin substrate S-2586 (MeO-Suc-Arg-Pro-Tyr-pNA·HCl) (Chromogenix Instrumentation Laboratory, Milan, Italy) at 0.125–5 mM concentration or 0.125–2 mM fluorogenic PSA substrate 4-morpholinecarbonyl-HSSKLQ-AMC (7-amido-4-methylcoumarin) (custom peptide from JPT Peptide Technologies GmbH, Berlin, Germany) were added to the wells together with 175 nM (5 µg/ml) PSA. The absorbance was measured at 405 nm immediately and at 5 min intervals for 30 min and fluorescence at 355/460 nm (excitation/emission) after 10 min, 20 min, 40 min, 1 h, 2 h and 4 h incubation at room temperature with a Victor 1420 Multilabel plate reader (PerkinElmer). In the fluorogenic assays all wells contained 5% dimethyl sulfoxide (DMSO).
(§4) The effect of the PSA-stimulating peptides on the activity of PSA was characterized with chromogenic and fluorogenic substrates in two (n = 2) and three (n = 3) separate experiments, respectively. PSA (350 nM) was first preincubated with peptides (0.35–350 µM) for 30 min at room temperature. Then 0.2 mM chromogenic or 0.3 mM fluorogenic substrate was added and absorbance or fluorescence was measured as described above. Fluorogenic assays with the peptides were performed in black 384-well microplates (Corning Inc., Corning, NY) and all wells contained 0.75% DMSO. The velocity of the reaction (V) was calculated from the change of absorbance/min or fluorescence/min at the linear phase of the reaction and converted to molar concentration as described above. Vmax (peptide + PSA), i.e., the maximal velocity of the reaction with increasing peptide concentrations and given PSA and substrate concentrations, was determined using SigmaPlot, fitting the data to f = y0+a*(1−exp(−b*x)) using non-linear regression. The maximal stimulatory capacity of the peptide, Vmax (peptide+PSA)/V(PSA), was calculated. The peptide concentrations at which the stimulation of PSA was half of the maximum ([peptide]½Vmax) and at which PSA activity was increased two-fold when compared to PSA alone ([peptide]2V) were also determined.

PSA [2] = biological target: T1, PSA; test: Stimulation of PSA activity by peptides, fluorogenic substrate; type: biochemical; conditions: 350 nM PSA preincubated with 0.35–350 µM peptide 30 min room temperature, 0.3 mM fluorogenic substrate, 0.75% DMSO, mean ± SD, n = 3; for Emax: read-out: Stimulation (maximal stimulation capacity as compared to PSA alone, Vmax (peptide+PSA)/V(PSA)); for EC50: read-out: [peptide]½Vmax (peptide concentration with half-maximal stimulation)
Description: as §1, §2
The proteolytic activity of PSA towards small peptide substrates was compared with two different substrates. Both assays were performed in 96-well microplates (PerkinElmer, Turku, Finland) with duplicates in two separate experiments (n = 2) in TBS buffer containing 1 g/l bovine serum albumin (0.1% BSA-TBS). […] The absorbance was measured at 405 nm immediately and at 5 min intervals for 30 min and fluorescence at 355/460 nm (excitation/emission) after 10 min, 20 min, 40 min, 1 h, 2 h and 4 h incubation at room temperature with a Victor 1420 Multilabel plate reader (PerkinElmer). […]
as §4, with “PSA (350 nM) was first preincubated with peptides (0.35–350 µM) for 30 min at room temperature.” left out, “Fluorogenic assays with the peptides were performed in black 384-well microplates (Corning Inc., Corning, NY) and all wells contained 0.75% DMSO.” left out

PSA [3] = biological target: T1, PSA; test: Proteolytic cleavage of protein substrates by PSA (SDS-PAGE, silver staining); type: biochemical; conditions: 0.2 µM PSA, 1 µM substrate, TBS, 37°C; disappearance of full-length band
Description: as §1
(§5) Protein LoBind tubes (Eppendorf AG, Hamburg, Germany) were used in all protein degradation experiments.
(§6) PSA (0.2–1 µM) and 0.5–1 µM of each protein substrate were incubated at 37°C for 22 h in TBS buffer. During the incubation, samples of 15 µl were taken at different time points: 0 min, 10 min, 30 min, 2 h, 5 h and 22 h, and stored at −20°C before further analysis.
Immediately after each incubation, reducing 4× SDS-loading buffer (8% SDS), containing 1 M β-mercaptoethanol or 75 mM dithiothreitol, was added to each sample and proteins were denatured at 70°C for 10 min. The samples were immediately analyzed by SDS-PAGE or frozen at −20°C. Frozen samples were heated again at 70°C before loading on the gel. The cleavage of protein substrates by PSA, i.e., the disappearance of the full-length protein bands, was quantified from scanned images of silver stained gels by the measurement of relative optical densities of the protein bands using ImageJ [40]. […]
Proteins were visualized either by silver staining or Western blotting. […] After 30 min incubation in 0.2% AgNO3, the gel was rinsed briefly with water and proteins were detected with development solution, containing 700 µl/l of 37% formaldehyde, 0.001% sodium thiosulfate and 3% anhydrous Na2CO3. […]

PSA [4] = biological target: T1, PSA; test: Surface plasmon resonance binding of peptides to PSA; conditions: SPR, peptide 1.2–600 µM, PBS pH 7.4, 25°C
Description: The binding kinetics and affinity of the peptides stimulating the activity of PSA were studied by surface plasmon resonance (SPR) on a Biacore T100 instrument using Biacore T100 Control Software 2.0.3 (both from GE Healthcare, Uppsala, Sweden). PSA (20 µg/ml, 0.7 µM) and α-chymotrypsin (20 µg/ml, 0.8 µM) were covalently immobilized on the Series S Sensor Chip CM5 (GE Healthcare) by using amine coupling in 10 mM sodium acetate buffer, pH 5.0. The immobilization levels varied in different experiments between 2000–3900 resonance units (RU) for PSA and 1400–2500 RU for chymotrypsin. Chymotrypsin was used as a reference for PSA, i.e., the binding of peptides to the chymotrypsin surface was subtracted as a non-specific interaction from the binding of peptides to the PSA surface in all measurements.
Binding to PSA was studied at various peptide concentrations (1.2–600 µM) in phosphate buffered saline (PBS), pH 7.4 (Lonza, Verviers, Belgium), containing 6.7 mM PO4 and 0.15 M NaCl, with a flow rate of 40 µl/min at 25°C. Contact time of the peptides with PSA was 60 s and dissociation time 180 s. In all other steps except the peptide binding the running buffer was supplemented with 0.005% surfactant P20 (GE Healthcare). The chip was washed after each measurement cycle with the running buffer, which removed all peptides. The binding data were analyzed using Biacore T100 Evaluation software 2.0.3. […]

plasminogen = test: Plasminogen cleavage control with MMP-3; type: biochemical, human; conditions: 1 µM MMP-3 or PSA, 1 µM plasminogen, 37°C, 22 h, TBS
Description: as §5, §6

HUVECs = test: HUVEC tube formation assay on Matrigel; type: cell-based, human
Description: Human umbilical vein endothelial cells (HUVECs) were isolated from umbilical cord veins and grown in Endothelial Cell Growth Medium (Promocell, Heidelberg, Germany) with 2% Ultroser G BioSepra serum substitute (PALL BioSepra, Cergy, France) and growth factors EGF and bFGF. For tube formation, HUVECs were grown on top of Matrigel (BD Biosciences) as described previously, [29].
To study the effect of PSA-cleaved protein fragments, 0.08 µM nidogen-1 or 0.4 µM galectin-3 (10 µg/ml each) were first incubated with 1 µM PSA for 24 h at 37°C in PBS (Lonza). Then PSA activity was blocked by one-hour incubation at room temperature with 2 µM monoclonal antibody 5C7 [38]. The mixture containing nidogen-1 or galectin-3 fragments with PSA blocked by antibody or the same amount of intact nidogen-1 or galectin-3 were added together with the cells onto gelled Matrigel and the cells were allowed to form tubular networks for 20 h. Control wells contained either PBS or 1 µM PSA. After overnight incubation, cell culture medium was collected from PBS and PSA control wells for SDS-PAGE and Western blotting. Images of tubular networks (100×magnification) were taken using an Axiovert 200 inverted light microscope connected to an AxioCam digital camera and visualized by AxioVision software (all from Zeiss, Göttingen, Germany).

IGFBP-3 = test: Immunofluorometric assay of intact IGFBP-3 after incubation with PSA and peptides; type: biochemical, human; conditions: 0.2 µM PSA, 2.2 µM IGFBP-3, 37°C, TBS; 22 h in text (24 h in method), n = 2
Description: To study the degradation of IGFBP-3 by PSA, we used a sandwich-type immunofluorometric assay (IFMA) that measures only intact IGFBP-3, but not that cleaved by PSA [43], [44]. […] After incubation, the samples were diluted 1∶1000 in IFMA assay buffer and IGFBP-3 concentrations were measured as previously described,[44].

PSA [5] = biological target: T1, PSA; test: Enzyme kinetics of PSA with fluorogenic peptide substrate; type: biochemical
Description: as §1, §3
The maximum velocity of the reaction (Vmax) and the Michaelis constant (Km), i.e., substrate concentration at which the reaction rate is half of the maximum, were evaluated for PSA with both peptide substrates using Sigma Plot 11 with the Enzyme Kinetics Module 1.3 (SYSTAT Software, Inc., San Jose, CA) and the catalytic constant (kcat), i.e., the number of substrate molecules converted to product per time unit, was calculated from the equation kcat = Vmax/[PSA]. The absorbance was converted to molar concentration with the Lambert-Beer equation (A = εcl), using the molar absorptivity of pNA (εpNA = 8800 M^−1cm^−1). Fluorescence (counts per second, cps) was transformed to molar concentrations with SigmaPlot by means of a standard curve for 7-amido-4-methylcoumarin (AMC, Sigma-Aldrich).

T1 sequence (P07288 25-261): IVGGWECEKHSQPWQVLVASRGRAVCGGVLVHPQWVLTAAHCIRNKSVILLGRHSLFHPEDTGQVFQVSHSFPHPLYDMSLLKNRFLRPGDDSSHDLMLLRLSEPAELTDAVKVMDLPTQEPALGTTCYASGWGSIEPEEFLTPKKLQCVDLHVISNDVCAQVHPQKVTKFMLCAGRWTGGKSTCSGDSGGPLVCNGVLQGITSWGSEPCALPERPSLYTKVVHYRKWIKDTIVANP

Compound: CC(C)C[C@@H]1NC(=O)[C@H](Cc2ccc(O)cc2)NC(=O)[C@H](CC(=O)O)NC(=O)[C@H](Cc2ccc(O)cc2)NC(=O)[C@H](CC(N)=O)NC(=O)[C@H](Cc2c[nH]cn2)NC(=O)[C@H](C)NC(=O)[C@H](Cc2ccccc2)NC(=O)[C@H](C(C)C)NC(=O)[C@@H](N)CSSC[C@@H](C(N)=O)NC(=O)[C@H](C(C)C)NC1=O [B2-NH2] (H-CVFAHNYDYLVC-NH2; disulfide 1-12)
- Emax (PSA [1]): 400 ± 14%
- EC50 (PSA [1]): 5.13 ± 1.43 µM
- Emax (PSA [2]): 391 ± 11%
- EC50 (PSA [2]): 4.78 ± 1.55 µM

Compound: IGFBP-3: recombinant human insulin-like growth factor-binding protein-3
- time for degradation of 50% of the protein (PSA [3]): 22 h

Compound: fibronectin
- time for degradation of 50% of the protein (PSA [3]): 17 h

Compound: CVFAHNADALVC (disulfide 1-12 (inferred)) [B2-NH2-control]
- binding to PSA (PSA [4]): All peptides, except the inactive B2-NH2-control peptide, bound to PSA
- Stimulation of PSA activity (summary in words) (PSA [1]; towards chromogenic and fluorogenic peptide substrates (Figure 1, Table 2), B2 and B2-NH2-control: Figure 1A (chromogenic)): did not stimulate PSA activity at all

Compound: PSA: major form of active PSA (isoform PSA-B) purified from pooled human seminal fluid
- cleavage of plasminogen (plasminogen): but not PSA, cleaved 1 µM plasminogen
- tube formation (HUVECs; 1 µM PSA, 20 h, HUVECs on Matrigel): reduced tube formation
- effect of PSA pre-incubation of gelled Matrigel on tube formation (HUVECs; overnight pre-incubation of Matrigel with PSA, then PSA inhibited with antibody, Mattsson et al. unpublished data): did not inhibit endothelial cell tube formation
- decrease of the content of intact IGFBP-3 (IGFBP-3): 50%

Compound: CC[C@H](C)[C@@H]1NC(=O)[C@@H]2CSSC[C@H](NC(=O)[C@H](Cc3c[nH]cn3)NC(=O)[C@H](Cc3c[nH]cn3)NC(=O)[C@H](CCC(=O)O)NC1=O)C(=O)N[C@@H](Cc1c[nH]c3ccccc13)C(=O)N[C@@H]([C@@H](C)O)C(=O)N[C@H](C(=O)O)CSSC[C@H](N)C(=O)N[C@@H](C(C)C)C(=O)N[C@@H](C)C(=O)N[C@@H](Cc1ccc(O)cc1)C(=O)N2 [C4] (H-CVAYCIEHHCWTC-OH; disulfide 1-13, 5-10)
- Emax (PSA [1]): 785 ± 7%
- EC50 (PSA [1]): 5.62 ± 2.17 µM
- Emax (PSA [2]): 610 ± 8%
- EC50 (PSA [2]): 3.72 ± 0.5 µM

Compound: 4-morpholinecarbonyl-HSSKLQ-AMC [Fluorogenic substrate, fluorogenic PSA substrate, AMC = 7-amido-4-methylcoumarin]
- kcat/Km compared to literature (PSA [5]; compared to that reported by Denmeade et al. [36]): about five-fold higher
- kcat (PSA [5]; kcat = Vmax/[PSA], substrate 0.125–2 mM, 175 nM PSA, 0.1% BSA-TBS, 5% DMSO, room temperature, mean ± SD of two experiments): 0.19 ± 0.09 s⁻¹
- Km (PSA [5]; substrate 0.125–2 mM, 175 nM PSA, 0.1% BSA-TBS, 5% DMSO, 355/460 nm, room temperature, 10 min to 4 h, mean ± SD of two experiments): 1580 ± 40 µM
- kcat/Km (PSA [5]; substrate 0.125–2 mM, 175 nM PSA, 0.1% BSA-TBS, 5% DMSO, room temperature, mean ± SD of two experiments): 122.0±59.4 s^−1M^−1
